Experimental data taken from patent US9924723B2 (THE REGENTS OF THE UNIVERSITY OF COLORADO, A BODY CORPORATE, priority 2013, dated 2018).

How the values were obtained:
[1] = Cadmium and chromium in corrosion product and pore water of treated field specimens (ICP-MS), pore water pH; assay type: physicochemical; details: after 70 days, Experiment B
Method: Metal concentrations measured by inductively coupled plasma mass spectrometry (ICP-MS) of acid extracted samples.
Cadmium and chromium were measured in dry sieved corrosion products for the treated samples in Experiment B, and are presented both as ng/g dry sieved fines as well as μM in pore water (FIG. 9). These metals are typically present in Portland Cement at average concentrations of 0.34 ng/g Cd and 76 ng/g Cr. […] Aside from one chromium outlier at 71 days, metal concentrations in the dry fine material after 50 days stayed relatively constant between 400 and 800 ng/g.
Metal concentrations—micromolar levels of both cadmium and chomium—in pore water are also shown; these levels represent the concentrations which drive metal diffusion into bacterial cells on the corrosion front. Pore water concentrations increased to several μM after 70 days, and subsequently receded to less than 0.2 μM by the end of the experiment at 126 days (FIG. 9). This decrease is in pore water concentrations is due to a marked increase in surface moisture as the experiment progressed (up to 23% moisture), which diluted the released metal ions.

[2] = Leaching of metal from metal-carbon formulation in liquid media (total metal concentration); assay type: physicochemical
[3] = Metal desorption from pre-loaded GAC in phosphate or citrate buffer solutions at various pH; assay type: physicochemical
Method: Phosphate or citrate buffering was used to stabilize pH. Points represent the mean of three observations. Error bars indicate standard deviation.
The metal leaching behavior of the GAC impregnated with Cd^2+ or CrO4^2− ions was determined using phosphate or citrate buffer solutions as described herein. […] This is consistent with studies that found cadmium and other metal cations sorbed to activated carbon most strongly at high pH. […] Also, chromate anions have increased sorption to activated carbon at low pH.
By delivering toxicity in the pH range where this transition between community types occurs, the metal-carbon formulations can prevent acidophile colonization. […] Cadmium cation sorption is more ideal for this corrosion prevention application because metal remains in solution as corrosion progresses to pH values below 6.

[4] = between pH 1 and pH 6; cited from earlier work
[5] = tested on: Halothiobacillus neapolitanus strains; details: cited from earlier work
[6] = GAC impregnated with metal ions, phosphate or citrate buffer

Row | Structure (SMILES) | Metal concentration in pore water [1] | Total metal concentration based on leaching experiments in media ([2]; pH 3) | Total metal concentration based on leaching experiments in media ([2]; pH 5) | pH below which desorption from GAC increases [3, 6] | Factor of increase of adsorption to activated carbon [4] | Effect on thiosulfate oxidation [5] | Sorption to GAC as function of pH [3, 6] | pH below which ions can resorb onto the carbon ([3]; pre-loaded GAC, buffered solutions)
1 | [Cd] [cadmium] | several | 0.89 mM | 0.89 mM | below 6 | 10 |  |  | 
2 | [O]=[Cr](=[O])([O-])[O-] [CrO4^−2] |  |  |  |  |  | inhibit | sorb strongly at pH above 7 and pH below 5 | < 4
3 | [Cr] [chromium] | several | 0.00456 mM | 0.000822 mM |  |  |  |  | 
